Results: patent US6066672A, “Amino compounds and angiotensin IV receptor agonists” (Taisho Pharmaceutical Co., Ltd., priority 1996, dated 2000)
pIC50: −log10 of the molar value. Where a name gives a salt, the structure may show the parent alone.

Target: T1, angiotensin IV receptor (Cavia porcellus, UniProt H0VNM7)
T1 construct: The Hartley guinea pig hippocampus was homogenized in a 50 mM Tris hydrochloride buffer solution; from tissue; host or cells: Hartley guinea pig hippocampus, crude membrane (48,000 x g precipitate)
T1 sequence (H0VNM7 1-1025): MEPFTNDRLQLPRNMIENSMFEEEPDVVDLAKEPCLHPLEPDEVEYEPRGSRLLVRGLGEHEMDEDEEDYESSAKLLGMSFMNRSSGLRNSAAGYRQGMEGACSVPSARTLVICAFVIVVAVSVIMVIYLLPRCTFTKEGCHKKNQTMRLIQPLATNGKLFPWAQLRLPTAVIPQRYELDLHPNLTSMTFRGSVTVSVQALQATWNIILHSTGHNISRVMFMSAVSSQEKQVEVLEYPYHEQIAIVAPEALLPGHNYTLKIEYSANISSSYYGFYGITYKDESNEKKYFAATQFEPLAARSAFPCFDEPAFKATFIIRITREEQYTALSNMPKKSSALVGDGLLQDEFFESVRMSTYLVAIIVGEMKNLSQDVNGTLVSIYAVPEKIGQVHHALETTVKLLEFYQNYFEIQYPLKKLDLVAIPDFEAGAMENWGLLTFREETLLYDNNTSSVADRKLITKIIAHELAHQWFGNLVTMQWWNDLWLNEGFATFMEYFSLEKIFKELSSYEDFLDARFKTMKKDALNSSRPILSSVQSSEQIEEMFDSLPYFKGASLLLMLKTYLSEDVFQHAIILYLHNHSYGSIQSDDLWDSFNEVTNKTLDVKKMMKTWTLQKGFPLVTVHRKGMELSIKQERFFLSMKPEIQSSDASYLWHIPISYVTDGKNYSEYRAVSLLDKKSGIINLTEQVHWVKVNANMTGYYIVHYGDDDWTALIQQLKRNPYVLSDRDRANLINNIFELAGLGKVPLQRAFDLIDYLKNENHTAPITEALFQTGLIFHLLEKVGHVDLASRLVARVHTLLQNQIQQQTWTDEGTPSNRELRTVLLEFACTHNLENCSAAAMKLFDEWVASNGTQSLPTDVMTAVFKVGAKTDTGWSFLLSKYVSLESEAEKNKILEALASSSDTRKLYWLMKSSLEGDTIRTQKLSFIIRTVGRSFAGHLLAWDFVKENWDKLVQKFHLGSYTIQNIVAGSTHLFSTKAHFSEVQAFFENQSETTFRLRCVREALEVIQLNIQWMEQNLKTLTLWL
Test: binding capability to angiotensin IV receptor, inhibition of 125I-angiotensin IV binding to guinea pig hippocampus membrane
Conditions: 0.2 nM 125I-angiotensin IV, Hartley guinea pig hippocampus crude membrane, 37° C., 90 minutes, pH 7.4
Description: The binding capability to angiotensin IV receptor was measured by using Hartley guinea pig hippocampus referring to the method described by Miller-Wing et al., J. Pharmacol. Exp. Ther., vol. 266, pp.1718 (1993). The Hartley guinea pig hippocampus was homogenized in a 50 mM Tris hydrochloride buffer solution (pH 7.4) containing 1 mM ethylenediamine-N,N,N',N'-tetraacetic acid (EDTA) and 100 μM phenylmethanesulfonyl fluoride (PMSF). After centrifugation at 900× g, the resulting supernatant was further centrifuged at 48,000× g. The precipitate was washed once with the same buffer solution and suspended in 50 mM Tris hydrochloride buffer solution (pH 7.4) containing 150 mM sodium chloride, 1 mM EDTA, 100 μM PMSF and 0.1% bovine serum albumin (BSA) to give a protein concentration of […] as a crude membrane specimen. […] The radioactivity on the filter paper was measured by using a gamma-counter. The non-specific bond was measured in the presence of 1 μM angiotensin IV, and the specific bond was calculated by subtracting the non-specific bond from the total bond.

| pIC50 | SMILES |
| --- | --- |
| 9.23 | CCCC[C@H](N)CN[C@@H](Cc1ccc(O)cc1)C(=O)N[C@H](/C=C/c1ccc(C)cc1)[C@@H](C)CC [Example 1, N'-[(S)-2-aminohexyl]-N-[(S)-(E)-3-(4-methylphenyl)-1-[(S)-1-methylpropyl]-2-propenyl]-L-tyrosinamide dihydrochloride] |
| 8.38 | CCCC[C@H](N)CN[C@@H](Cc1ccc(O)cc1)C(=O)N[C@H](CCc1ccc(C)cc1)[C@@H](C)CC [Example 2, N'-[(S)-2-aminohexyl]-N-[(1R,2S)-2-methyl-1-[2-(4-methylphenyl)ethyl]butyl]-L-tyrosinamide dihydrochloride] |
| 7.90 | CCC/C=C\[C@@H](NC(=O)[C@H](Cc1ccc(O)cc1)NC[C@@H](N)CCCC)[C@@H](C)CC [Example 3, N'-[(S)-2-aminohexyl]-N-[(S)-(Z)-1-[(S)-1-methylpropyl]-2-hexenyl]-L-tyrosinamide dihydrochloride] |
| 7.94 | CCCCC[C@@H](NC(=O)[C@H](Cc1ccc(O)cc1)NC[C@@H](N)CCCC)[C@@H](C)CC [Example 4, N'-[(S)-2-aminohexyl]-N-[(R)-1-[(S)-1-methylpropyl]hexyl]-L-tyrosinamide dihydrochloride] |
| 8.14 | CCCC[C@H](N)CN[C@@H](Cc1ccc(O)cc1)C(=O)N[C@H](/C=C\Cc1ccccc1)CC(C)C [Example 5, N'-[(S)-2-aminohexyl]-N-[(S)-(Z)-1-(2-methylpropyl)-4-phenyl-2-butenyl]-L-tyrosinamide dihydrochloride] |
| 7.74 | CCCC[C@H](N)CN[C@@H](Cc1ccc(O)cc1)C(=O)N[C@H](CCCc1ccccc1)CC(C)C [Example 6, N'-[(S)-2-aminohexyl]-N-[(R)-3-methyl-1-(3-phenylpropyl)butyl]-L-tyrosinamide dihydrochloride] |
| 9.03 | CCCC[C@H](N)CN[C@@H](Cc1ccc(O)cc1)C(=O)N[C@H](/C=C/c1ccncc1)CC(C)C [Example 7, N'-[(S)-2-aminohexyl]-N-[(S)-(E)-1-(2-methylpropyl)-3-(4-pyridyl)-2-propenyl]-L-tyrosinamide trihydrochloride] |
| 7.82 | CCCC[C@H](N)CN[C@@H](Cc1ccc(O)cc1)C(=O)N[C@H](CCc1ccncc1)CC(C)C [Example 8, N'-[(S)-2-aminohexyl]-N-[(R)-3-methyl-1-[2-(4-pyridyl)ethyl]butyl]-L-tyrosinamide trihydrochloride] |
| 7.66 | CCCC[C@H](N)CN[C@@H](Cc1ccc(O)cc1)C(=O)N[C@@H](/C=C/c1ccncc1)CC(C)C [Example 9, N'-[(S)-2-aminohexyl]-N-[(R)-(E)-1-(2-methylpropyl)-3-(4-pyridyl)-2-propenyl]-L-tyrosinamide trihydrochloride] |
| 7.09 | CCCC[C@H](N)CN[C@@H](Cc1ccc(O)cc1)C(=O)N[C@@H](CCc1ccncc1)CC(C)C [Example 10, N'-[(S)-2-aminohexyl]-N-[(S)-3-methyl-1-[2-(4-pyridyl)ethyl]butyl]-L-tyrosinamide trihydrochloride] |
| 8.91 | CCCC[C@H](N)CN[C@@H](Cc1ccc(O)cc1)C(=O)N[C@H](/C=C/c1ccc(C(=O)OC)cc1)CC(C)C [Example 11, N'-[(S)-2-aminohexyl]-N-[(S)-(E)-3-(4-methoxycarbonylphenyl)-1-(2-methylpropyl)-2-propenyl]-L-tyrosinamide dihydrochloride] |
| 7.45 | CCCC[C@H](N)CN[C@@H](Cc1ccc(O)cc1)C(=O)N[C@H](CCc1ccc(C(=O)OC)cc1)CC(C)C [Example 12, N'-[(S)-2-aminohexyl]-N-[(R)-1-[2-(4-methoxycarbonylphenyl)ethyl]-3-methylbutyl]-L-tyrosinamide dihydrochloride] |
| 8.75 | CCCC[C@H](N)CN[C@@H](Cc1ccc(O)cc1)C(=O)N[C@H](/C=C/c1ccc(C(=O)O)cc1)CC(C)C [Example 13, N'-[(S)-2-aminohexyl]-N-[(S)-(E)-3-(4-carboxyphenyl)-1-(2-methylpropyl)-2-propenyl]-L-tyrosinamide dihydrochloride] |
| 7.58 | CCCC[C@H](N)CN[C@@H](Cc1ccc(O)cc1)C(=O)N[C@H](CCc1ccc(C(=O)O)cc1)CC(C)C [Example 14, N'-[(S)-2-aminohexyl]-N-[(R)-3-methyl-1-[2-(4-carboxyphenyl)ethyl]butyl]-L-tyrosinamide dihydrochloride] |
| 8.42 | CCCC[C@H](N)CN[C@@H](Cc1ccc(O)cc1)C(=O)N[C@H](/C=C/c1cccc2ccccc12)CC(C)C [Example 15, N'-[(S)-2-aminohexyl]-N-[(S)-(E)-1-(2-methylpropyl)-3-(1-naphthyl)-2-propenyl]-L-tyrosinamide dihydrochloride] |
| 8.46 | CCCC[C@H](N)CN[C@@H](Cc1ccc(O)cc1)C(=O)N[C@H](CCc1cccc2ccccc12)CC(C)C [Example 16, N'-[(S)-2-aminohexyl]-N-[(R)-3-methyl-1-[2-(1-naphthyl)ethyl]butyl]-L-tyrosinamide dihydrochloride] |
| 9.19 | CCCC[C@H](N)CN[C@@H](Cc1ccc(O)cc1)C(=O)N[C@H](/C=C/c1ccccc1)CC(C)C [Example 17, N'-[(S)-2-aminohexyl]-N-[(S)-(E)-1-(2-methylpropyl)-3-phenyl-2-propenyl]-L-tyrosinamide dihydrochloride] |
| 8.06 | CCCC[C@H](N)CN[C@@H](Cc1ccc(O)cc1)C(=O)N[C@H](CCc1ccccc1)CC(C)C [Example 18, N'-[(S)-2-aminohexyl]-N-[(R)-3-methyl-1-[2-phenylethyl]butyl]-L-tyrosinamide dihydrochloride] |
| 9.28 | CCCC[C@H](N)CN[C@@H](Cc1ccc(O)cc1)C(=O)N[C@H](/C=C/c1ccc(Cl)cc1)CC(C)C [Example 19, N'-((S)-2-aminohexyl]-N-[(S)-(E)-3-(4-chlorophenyl)-1-(2-methylpropyl)-2-propenyl]-L-tyrosinamide dihydrochloride] |
| 8.26 | CCCC[C@H](N)CN[C@@H](Cc1ccc(O)cc1)C(=O)N[C@H](/C=C\c1ccc(Cl)cc1)CC(C)C [Example 20, N'-[(S)-2-aminohexyl]-N-[(S)-(Z)-3-(4-chlorophenyl)-1-(2-methylpropyl)-2-propenyl]-L-tyrosinamide dihydrochloride] |
| 8.22 | CCCC[C@H](N)CN[C@@H](Cc1ccc(O)cc1)C(=O)N[C@H](/C=C/c1ccc(-c2ccccc2)cc1)CC(C)C [Example 21, N'-[(S)-2-aminohexyl]-N-[(S)-(E)-3-([1,1'-biphenyl]-4-yl)-1-(2-methylpropyl)-2-propenyl]-L-tyrosinamide dihydrochloride] |
| 7.05 | CCCC[C@H](N)CN[C@@H](Cc1ccc(O)cc1)C(=O)N[C@H](CCc1ccc(-c2ccccc2)cc1)CC(C)C [Example 22, N'-[(S)-2-aminohexyl]-N-[(R)-1-[2-([1,1'-biphenyl]-4-yl)ethyl]-3-methylbutyl]-L-tyrosinamide dihydrochloride] |
| 9.28 | CCCC[C@H](N)CN[C@@H](Cc1ccc(O)cc1)C(=O)N[C@H](/C=C/c1ccc2ccccc2n1)CC(C)C [Example 23, N'-[(S)-2-aminohexyl]-N-[(S)-(E)-3-(2-quinolyl)-1-(2-methylpropyl)-2-propenyl]-L-tyrosinamide trihydrochloride] |
| 8.42 | CCCC[C@H](N)CN[C@@H](Cc1ccc(O)cc1)C(=O)N[C@H](CCc1ccc2ccccc2n1)CC(C)C [Example 24, N'-[(S)-2-aminohexyl]-N-[(R)-3-methyl-1-[2-(2-quinolyl)ethyl]butyl]-L-tyrosinamide dihydrochloride] |
| 7.05 | C=C[C@H](CC(C)C)NC(=O)[C@H](Cc1ccc(O)cc1)NC[C@@H](N)CCCC [Example 25, N'-[(S)-2-aminohexyl]-N-[(S)-1-(2-methylpropyl)-2-propenyl]-L-tyrosinamidedihydrochloride] |
